Like-named read-outs stand apart in the source and are kept apart here. Values belong to the compound of their own block, whether it stands above or below them.
Columns and labels:
[1] = set-up: method as in PMID 22108178; conditions: healthy female volunteers; cited from earlier work
[2] = system: CYP3A4; set-up: method as in ref [17, 18] of supplement; conditions: ref [17, 18] of supplement, cited from earlier work; for Km: literature value adapted with fu,inc
[3] = [38] of supplement (ChemAxon Chemicalize), cited from earlier work; for Solubility (pH 6.5): ref [30]; for Solubility (pH 6.5) / pKa (base), literature: [34]; for pKa (base), literature: ref [23], [30]
[4] = system: CYP2D6; conditions: cited from earlier work; for Km: literature value adapted with fu,inc
[5] = set-up: method as in ref [35] of supplement; conditions: ref [35] of supplement; cited from earlier work
[6] = system: CYP2D6; test: In vitro scaling factors from CYP2D6 activity score-specific in vitro metabolite formation rates; format: in vitro ADME, human
Description: Here, kcat, AS=i represents the catalytic rate constant for CYP2D6 AS = i, kcat, AS=2 is the catalytic rate constant for the NM population and IVSFi is the corresponding in vitro scaling factor (IVSF).
S2. Drug-Gene-Interaction (DGI) Modeling
S2.1. CYP2D6 in vitro Scaling Factors
The estimated CYP2D6 kcat values for the NM population were extrapolated to the intermediate metabolizers (IM) (AS=0.5, AS=0.75 and AS=1) and ultrarapid metabolizers (UM) populations according to Equation 1 in the main manuscript, using in vitro scaling factors (IVSFs). Determination of IVSFs were based on AS-specific in vitro metabolite formation rates relative to the corresponding formation rate in NM as a reference. The respective IVSFs for each CYP2D6-dependent pathway are depicted in Table S8. Measured in vitro data for (E)-4-OH-Clom and (E)-4-OH-DE-Clom AS-specific formation rates were available, while mean values were assumed for the remaining CYP2D6-dependent metabolic pathways.
Table S8. Employed in vitro scaling factors (IVSFs) for individual CYP2D6 activity scores. […]

[7] = Pharmacokinetic panel study in CYP2D6-genotyped healthy female volunteers (observed plasma AUClast/Cmax, DGI and DD(G)I with clarithromycin or paroxetine); format: in vivo, human
Method: Clinical data from a recently performed pharmacokinetic panel study (EudraCT-Nr.: 2009-014531-20, ClinicalTrails.gov: NCT01289756) were used for PBPK model development. The study protocol, patient information sheet and consent form were approved by the Ethics Committee of the University of Tübingen and the German Federal Institute for Drugs and Medical Devices (BfArM). All study participants had signed an informed consent form.
The study was conducted in 20 healthy, Caucasian, premenopausal female volunteers that were genotyped for CYP2D6 polymorphisms and subsequently assigned to predicted phenotypes according to the respective CYP2D6 activity score (AS) as depicted in Table 1 [17, 18]. […] After a wash-out phase of at least three weeks, clomiphene was administered concomitantly with the strong CYP3A4 inhibitor clarithromycin [19]. Here, the participants received 500 mg clarithromycin twice daily for four days. On day 5, a single dose of clomiphene citrate was administered together with 500 mg clarithromycin. Finally, in the third period, all subjects received clomiphene citrate together with the strong CYP2D6 inhibitor paroxetine. Here, 40 mg paroxetine was administered once daily for two days. On day 3, participants received a single dose of clomiphene citrate concomitantly with 40 mg paroxetine (Figure 1).
For the evaluation of DGI and DD(G)I effects, the predicted AUClast and Cmax effect ratios were calculated according to Equations (4) and (5) and compared with the corresponding observed values. Here, model performance was assessed using the prediction acceptance limits proposed by Guest et al. with 1.25-fold variability. (4) AUClast, AS=i ratio=AUClast, effect, AS=i/AUClast, control (5) Cmax, AS=i ratio=Cmax, effect, AS=i/Cmax, control
For the calculation of DGI ratios, AUClast, effect, AS=i and Cmax, effect, AS=i represent the AUClast and Cmax for CYP2D6 AS = i, while AUClast, control and Cmax, control are the AUClast and Cmax values for the NM (AS = 2) population. For the calculation of DD(G)I ratios, AUClast, effect, AS=i and Cmax, effect, AS=i represent the AUClast and Cmax for the CYP2D6 AS = i in the DD(G)I scenario with clarithromycin or paroxetine, while AUClast, control and Cmax, control are the AUClast and Cmax values for the CYP2D6 AS = i without the concomitant use of perpetrator drugs.

[8] = target: estrogen receptor; conditions: read-out: half-maximal inhibitory concentration towards the estrogen receptor; cited from earlier work
[9] = cited from earlier work
[10] = ref [19] ((E)-Clom, (E)-4-OH-Clom), [17, 18] ((E)-DE-Clom) of supplement, read-out: CYP2D6 Km → undef.

SMILES: CCN(CC)CCOc1ccc(/C(=C(/Cl)c2ccccc2)c2ccc(O)cc2)cc1 [(E)-4-OH-Clom, (E)-4-hydroxyclomiphene]
maximum plasma concentration (Cmax) in CYP2D6 PM compared with NM [1]: approximately ten-fold lower
Km ([2]; read-out: CYP3A4 Km → (E)-4-OH-DE-Clom): 3.4 µM
Solubility (pH 6.5) [3]: 0.06 mg/ml
pKa (base), literature [3]: 9.41
pKa (acid) ([3]; ref [34]): 8.64
Km [4, 10]: 3.6 µM
fu (fraction unbound), literature [5]: 0.6%
IVSF, CYP2D6-mediated pathway → undef. ([6]; AS=0, mean value assumed): 0
IVSF, CYP2D6-mediated pathway → undef. ([6]; AS=0.5, mean value assumed): 0.17
IVSF, CYP2D6-mediated pathway → undef. ([6]; AS=0.75, mean value assumed): 0.23
IVSF, CYP2D6-mediated pathway → undef. ([6]; AS=1, mean value assumed): 0.51
IVSF, CYP2D6-mediated pathway → undef. ([6]; AS=2 (NM, reference)): 1
IVSF, CYP2D6-mediated pathway → undef. ([6]; AS=3, mean value assumed): 1.41
order of AUClast across CYP2D6 phenotypes ([7]; DGI setting): AUCIM (AS = 0.5) > AUCNM > AUCUM > AUCPM
observed AUClast effect ratio in clarithromycin DDGI scenario vs control ([7]; PM): ~ 1.3 fold
Cmax change due to inhibition of CYP2D6 by paroxetine ([7]; all phenotypes except for PM): decreased
AUClast change during CYP3A4 inhibition ([7]; clarithromycin, all phenotypes): slight increase
IC50 [8]: 2.2 nM

IVSF, CYP2D6-mediated pathway → undef. ([6]; AS=0, mean value assumed): 0
IVSF, CYP2D6-mediated pathway → (E)-4-OH-DE-Clom ([6]; AS=0, relative to NM, from in vitro formation rates, supplement ref [17]): 0
IVSF, CYP2D6-mediated pathway → undef. ([6]; AS=0.5, mean value assumed): 0.17
IVSF, CYP2D6-mediated pathway → (E)-4-OH-DE-Clom ([6]; AS=0.5, relative to NM, from in vitro formation rates, supplement ref [17]): 0.16
IVSF, CYP2D6-mediated pathway → undef. ([6]; AS=0.75, mean value assumed): 0.23
IVSF, CYP2D6-mediated pathway → (E)-4-OH-DE-Clom ([6]; AS=0.75, relative to NM, from in vitro formation rates, supplement ref [17]): 0.19
IVSF, CYP2D6-mediated pathway → undef. ([6]; AS=1, mean value assumed): 0.51
IVSF, CYP2D6-mediated pathway → (E)-4-OH-DE-Clom ([6]; AS=1, relative to NM, from in vitro formation rates, supplement ref [17]): 0.44
IVSF, CYP2D6-mediated pathway → (E)-4-OH-DE-Clom ([6]; AS=2 (NM, reference)): 1
IVSF, CYP2D6-mediated pathway → undef. ([6]; AS=2 (NM, reference)): 1
IVSF, CYP2D6-mediated pathway → undef. ([6]; AS=3, mean value assumed): 1.41
IVSF, CYP2D6-mediated pathway → (E)-4-OH-DE-Clom ([6]; AS=3, relative to NM, from in vitro formation rates, supplement ref [17]): 1.30
AUClast reduction during concomitant clarithromycin ([7]; PM): ~ 34%
SMILES: CCNCCOc1ccc(/C(=C(/Cl)c2ccccc2)c2ccccc2)cc1 [(E)-DE-Clom, (E)-N-desethylclomiphene]
ratio kcat,CYP3A4 / kcat,CYP2D6 for metabolism to (E)-N,N-didesethylclomiphene ([2]; from measured in vitro metabolic enzyme activities): 0.13
Km ([2]; read-out: CYP3A4 Km → undef.): 0.97 µM
Solubility (pH 6.5) [3]: 0.46 mg/ml
pKa (base), literature [3]: 9.59
CYP2D6 contribution to the formation of the desethyl metabolite ([4]; as incorporated in the model): ~ 20%
Km ([4]; ref [17, 18] of supplement, read-out: CYP2D6 Km → (E)-4-OH-DE-Clom): 0.49 µM
Km [4, 10]: 0.97 µM

SMILES: CCN(CC)CCOc1ccc(C(=C(Cl)c2ccccc2)c2ccccc2)cc1 [clomiphene, Clomiphene]
response to clomiphene therapy ([9]; CYP2D6 IM): all CYP2D6 intermediate metabolizers (IM) responded
non-responders to clomiphene therapy ([9]; CYP2D6 NM): 30%
women who do not respond during clomiphene therapy [9]: 8–54%

Source: article PMC9781104 (Pharmaceutics, 2022)
